Data on one molecule can be found in the NIST ThermoML archive (doi:10.1016/j.tca.2012.02.002).

± gives the expanded uncertainty stated by the source.

The conditions of the series: 293 K; 101.33 kPa; Crystal; X-ray diffraction.

As for `O=P([O-])([O-])[O-].[Er+3]` [erbium phosphate], the molar volume is 4.271e-05 ± 5.1e-07 m3/mol.
